Experimental data published in ChEMBL document CHEMBL1128274, “6-Aminoquinolones: a new class of quinolone antibacterials?” (1995).
Values after ≈ are worked out from the molar mass of the structure shown.

How the values were obtained:
Type in all cases: functional
[1] = system: Enterobacter cloacae; assay: Tested in vitro for inhibitory activity against gram negative bacteria Enterobacter cloacae OMNFI 174 strain.
[2] = system: Staphylococcus aureus; assay: Tested in vitro for inhibitory activity against gram positive bacteria Staphylococcus aureus MPR 5 strain
[3] = system: Escherichia coli; assay: Tested in vitro for inhibitory activity against gram negative bacteria Escherichia coli ATCC 8739 cell lines at 5.8 ug/mL
[4] = system: Staphylococcus aureus; assay: Tested in vitro for inhibitory activity against gram positive bacteria Staphylococcus aureus ATCC 6538 strain
[5] = system: Enterococcus faecalis; assay: Tested in vitro for inhibitory activity against gram positive bacteria Streptococcus faecalis LEP Br strain
[6] = system: Escherichia coli; assay: Tested in vitro for inhibitory activity against gram negative bacteria Escherichia coli ISF 432 cell lines at 5.8 ug/mL
[7] = system: Klebsiella pneumoniae; assay: Tested in vitro for inhibitory activity against gram negative bacteria Klebsiella pneumoniae ATCC 10031 strain
[8] = system: Shigella; assay: Tested in vitro for inhibitory activity against gram negative bacteria Shigella enteritidis
[9] = system: Pseudomonas aeruginosa; assay: Tested in vitro for inhibitory activity against gram negative bacteria Pseudomonas aeruginosa ATCC 9027 strain
[10] = Minimum concentration at which cleaved linear DNA is observed
[11] = system: Staphylococcus epidermidis; assay: Tested in vitro for inhibitory activity against gram positive bacteria Staphylococcus epidermidis CPHL A2 strain
[12] = system: Acinetobacter calcoaceticus; assay: Tested in vitro for inhibitory activity against gram negative bacteria Acinetobacter calcoaceticus OSMPV 113 strain.
[13] = system: Providencia stuartii; assay: Tested in vitro for inhibitory activity against gram negative bacteria Providencia stuartii CNUR 5 strain
[14] = system: Staphylococcus epidermidis; assay: Tested in vitro for inhibitory activity against gram positive bacteria Staphylococcus epidermidis HCF berset C strain
[15] = system: Escherichia coli; assay: Tested in vitro for inhibitory activity against gram negative bacteria Escherichia coli ATCC 8739 strain at 25 ug/mL
[16] = system: Escherichia coli; assay: Tested in vitro for inhibitory activity against gram negative bacteria Escherichia coli ISF 432 strain at 25 ug/mL
[17] = system: Escherichia coli; assay: Tested in vitro for inhibitory activity against gram negative bacteria Escherichia coli ISF 432 strain.
[18] = system: Escherichia coli; assay: Tested in vitro for inhibitory activity against gram negative bacteria Escherichia coli ATCC 8739 strain
[19] = system: Providencia stuartii; assay: Tested in vitro for inhibitory activity against gram negative bacteria Providencia stuartii CNUR 5 cell lines
[20] = system: Escherichia coli; assay: Tested in vitro for inhibitory activity against gram negative bacteria Escherichia coli ATCC 8739 cell lines
[21] = system: Escherichia coli; assay: Tested in vitro for inhibitory activity against gram negative bacteria Escherichia coli ISF 432 cell lines at 10 ug/mL
[22] = system: Escherichia coli; assay: Tested in vitro for inhibitory activity against gram negative bacteria Escherichia coli ATCC 8739 cell lines at 10 ug/mL

MIC [1]	MIC [2]	MIC [4]	MIC [5]	MIC [7]	MIC [8]	MIC [9]	MIC [11]	MIC [12]	MIC [13]	MIC [14]	MIC [17]	MIC [20]	SMILES	further results
2 µg/mL (≈ 5.53 µM)	0.25 µg/mL (≈ 0.692 µM)	0.25 µg/mL (≈ 0.692 µM)	8 µg/mL (≈ 22.1 µM)	0.03 µg/mL (≈ 0.083 µM)	2 µg/mL (≈ 5.53 µM)	4 µg/mL (≈ 11.1 µM)	0.5 µg/mL (≈ 1.38 µM)	0.5 µg/mL (≈ 1.38 µM)	4 µg/mL (≈ 11.1 µM)	0.5 µg/mL (≈ 1.38 µM)	–	–	CC(C)(C)n1cc(C(=O)O)c(=O)c2cc(N)c(N3CCSCC3)cc21	MIC [3]: 0.06 µg/mL (≈ 0.166 µM); MIC [6]: 0.03 µg/mL (≈ 0.083 µM); Concentration [10]: 5.8 µg/mL
0.25 µg/mL (≈ 0.73 µM)	2 µg/mL (≈ 5.84 µM)	2 µg/mL (≈ 5.84 µM)	32 µg/mL (≈ 93.5 µM)	0.03 µg/mL (≈ 0.0876 µM)	0.25 µg/mL (≈ 0.73 µM)	4 µg/mL (≈ 11.7 µM)	2 µg/mL (≈ 5.84 µM)	4 µg/mL (≈ 11.7 µM)	8 µg/mL (≈ 23.4 µM)	4 µg/mL (≈ 11.7 µM)	–	–	CN1CCN(c2cc3c(cc2N)c(=O)c(C(=O)O)cn3C2CC2)CC1	MIC [15]: 0.25 µg/mL (≈ 0.73 µM); MIC [16]: 0.03 µg/mL (≈ 0.0876 µM)
16 µg/mL (≈ 57.4 µM)	128 µg/mL (≈ 459 µM)	128 µg/mL (≈ 459 µM)	128 µg/mL (≈ 459 µM)	2 µg/mL (≈ 7.18 µM)	16 µg/mL (≈ 57.4 µM)	128 µg/mL (≈ 459 µM)	128 µg/mL (≈ 459 µM)	128 µg/mL (≈ 459 µM)	–	64 µg/mL (≈ 230 µM)	2 µg/mL (≈ 7.18 µM)	–	Nc1cc2c(=O)c(C(=O)O)cn(C3CC3)c2cc1Cl	MIC [18]: 2 µg/mL (≈ 7.18 µM); MIC [19]: 64 µg/mL (≈ 230 µM)
64 µg/mL (≈ 214 µM)	128 µg/mL (≈ 428 µM)	128 µg/mL (≈ 428 µM)	128 µg/mL (≈ 428 µM)	2 µg/mL (≈ 6.68 µM)	64 µg/mL (≈ 214 µM)	128 µg/mL (≈ 428 µM)	128 µg/mL (≈ 428 µM)	128 µg/mL (≈ 428 µM)	128 µg/mL (≈ 428 µM)	128 µg/mL (≈ 428 µM)	4 µg/mL (≈ 13.4 µM)	2 µg/mL (≈ 6.68 µM)	Nc1cc2c(=O)c(C(=O)O)cn(C3CC3)c2cc1NC1CC1	–
0.5 µg/mL (≈ 1.45 µM)	0.5 µg/mL (≈ 1.45 µM)	0.5 µg/mL (≈ 1.45 µM)	8 µg/mL (≈ 23.2 µM)	0.03 µg/mL (≈ 0.0868 µM)	0.5 µg/mL (≈ 1.45 µM)	2 µg/mL (≈ 5.79 µM)	1 µg/mL (≈ 2.89 µM)	1 µg/mL (≈ 2.89 µM)	1 µg/mL (≈ 2.89 µM)	2 µg/mL (≈ 5.79 µM)	–	–	Nc1cc2c(=O)c(C(=O)O)cn(C3CC3)c2cc1N1CCSCC1	MIC [21]: 0.03 µg/mL (≈ 0.0868 µM); MIC [22]: 0.03 µg/mL (≈ 0.0868 µM)
128 µg/mL (≈ 358 µM)	128 µg/mL (≈ 358 µM)	128 µg/mL (≈ 358 µM)	128 µg/mL (≈ 358 µM)	32 µg/mL (≈ 89.5 µM)	128 µg/mL (≈ 358 µM)	128 µg/mL (≈ 358 µM)	128 µg/mL (≈ 358 µM)	128 µg/mL (≈ 358 µM)	128 µg/mL (≈ 358 µM)	128 µg/mL (≈ 358 µM)	16 µg/mL (≈ 44.8 µM)	16 µg/mL (≈ 44.8 µM)	CN1CCN(c2cc3c(c(N)c2N)c(=O)c(C(=O)O)cn3C2CC2)CC1	–
0.12 µg/mL (≈ 0.32 µM)	2 µg/mL (≈ 5.33 µM)	2 µg/mL (≈ 5.33 µM)	4 µg/mL (≈ 10.7 µM)	0.03 µg/mL (≈ 0.0799 µM)	0.25 µg/mL (≈ 0.666 µM)	4 µg/mL (≈ 10.7 µM)	4 µg/mL (≈ 10.7 µM)	2 µg/mL (≈ 5.33 µM)	2 µg/mL (≈ 5.33 µM)	4 µg/mL (≈ 10.7 µM)	0.03 µg/mL (≈ 0.0799 µM)	0.03 µg/mL (≈ 0.0799 µM)	CN1CCN(c2c(N)c(N)c3c(=O)c(C(=O)O)cn(C4CC4)c3c2F)CC1	–
1 µg/mL (≈ 2.75 µM)	0.25 µg/mL (≈ 0.688 µM)	0.5 µg/mL (≈ 1.38 µM)	4 µg/mL (≈ 11 µM)	0.03 µg/mL (≈ 0.0826 µM)	4 µg/mL (≈ 11 µM)	4 µg/mL (≈ 11 µM)	0.5 µg/mL (≈ 1.38 µM)	1 µg/mL (≈ 2.75 µM)	0.5 µg/mL (≈ 1.38 µM)	1 µg/mL (≈ 2.75 µM)	–	–	Nc1cc2c(=O)c(C(=O)O)cn(C3CC3)c2c(F)c1N1CCSCC1	MIC [3]: 0.12 µg/mL (≈ 0.33 µM); MIC [6]: 0.06 µg/mL (≈ 0.165 µM)
